The values below come from patent publication US9975881B2, “Compound” (ASTRAZENECA AB, priority 2011, dated 2018).

Data set [1] is described as follows: Dog half-life (measured), in vivo pharmacokinetics. As to conditions: male, 1 mg/kg; elimination half-life in plasma, intravenous 30 minute infusion, beagle dog, mean of a minimum of two dogs. From the text: The following describes the methods used to obtain in vivo pharmacokinetic parameters in the male beagle dog. It is applicable for use with any compound but may need modification based on such parameters as solubility, assay sensitivity, anticipated clearance and half-life, when the default formulation, dose level or sampling intervals may be inappropriate. The method described here represents a standard approach from which justified and documented modifications can be made.
A standard dose solution of 1 mg·mL^−1 was prepared. The recommended dose vehicle (if the compound was not sufficiently soluble in isotonic saline) was 10%/o DMSO:90% sterile water or saline with pH adjustment using 1 M HCl or NaOH. […]
Blood samples (˜1 ml) were taken into EDTA treated sampling tubes and plasma was prepared by centrifugation (3 minutes at 13000 rpm) soon after sample collection. Samples were taken at pre determined times over 24 hours (e.g. 0, 5, 15, 30, 35, 45, 60, 90, 120, 180, 240, 300, 360, 420, 720, 1440 minutes). The concentration of the analyte(s) was quantitatively determined in plasma by mass spectrometry. […]
To each of the test samples, dose tests, standards and QCs 100 μL (90 μl for dose tests, standards and QCs) of methanol was added followed by 100 μl of internal standard. […] Aliquots (120 μL) of each sample were transferred into a microtitre plate ready for analysis via HPLC/MS-MS. […]

Data set [2] is described as follows: Human hepatic intrinsic clearance (CLint) from human hepatocyte incubations. Format: in vitro ADME. Particulars: cryopreserved human hepatocytes in suspension, 1×10^6 cells/ml, 1 μM compound, no HSA, pH 7.4. The text has this: Measurement of Human Hepatic Intrinsic Clearance (CLint)
For the majority of drugs, a large component of their plasma clearance is contributed by hepatic metabolism. Intrinsic clearance (CLint) is a measure of the potential of a compound to undergo metabolism and can be related to hepatic clearance in vivo from a consideration of plasma protein binding and liver blood flow. Therefore, CLint may be used as a key parameter in predicting the half-life of a compound in humans. […]
An aliquot of cell suspension (0.2 mL) was diluted with 0.2 ml protein-free suspension buffer. […] The cells were then counted (central square only) using an inverted microscope, viable cells being able to exclude the dye and non-viable cells being stained. The percentage of viable cells in the preparation was calculated thus:
The concentration of viable cells was calculated: Viable cells ml^−1=Viable cell count×10^4×3×50 […]
At appropriate time points (e.g. 5, 15, 30, 45, 60, 75, 90 and 120 min), aliquots (40 μl) were taken out of the incubation mix and added to 3 volumes of methanol to terminate the reactions and denature the hepatocytes. […] The supernatants were transferred to micro titre plates and analysed by HPLC-MSMS using the following method as a suitable starting point: […]

Turning to `CC1CN(S(=O)(=O)Nc2cc(O[C@H](C)[C@@H](O)CO)nc(SCc3ccc(F)cc3)n2)C1` [Example 1, N-(6-((2R,3S)-3,4-Dihydroxybutan-2-yloxy)-2-(4-fluorobenzylthio)pyrimidin-4-yl)-3-methylazetidine-1-sulfonamide], the half-life (commonly the time in which the quantity being followed falls by half) in data set [1] was 3.7 h. In data set [2], the hepatocyte CLint (usually the rate of metabolic loss divided by the concentration) at 1 μM was determined as 2.9 µL/min/1e6 cells.
